Consider 1 compound from patent US9433663B2, “Mobilization of hematopoietic stem cells” (Children's Hospital Medical Center, priority 2008, dated 2016).

The target of one assay is T1, Rac1 (Homo sapiens, UniProt P63000).
T1 construct: endogenous in cells; host or cells: human CD34+ umbilical cord blood cells (HCB)
The assay is described as follows: Rho GTPase effector pulldown in human CD34+ umbilical cord blood cells, Rac1. The class given is cell-based. The settings on record: human CD34^+ HCBs. How it is done: To begin to study potential utility of CASIN in human hematopoietic stem cell mobilization, a series of cellular assays were carried out to determine the effects on human CD34^+ umbilical cord blood cells (HCBs). […] The effects of CASIN on human hematopoietic cell mobilization was therefore tested using a well established preclinical in vivo model (NOD/SCID-Hcb) of human hematopoietic function, where fresh CD34^+ hCB cells were transplanted into sub-lethally irradiated NOD/SCIDs by intrafemoral injection, and repopulated and maintained human hematopoietic reconstitution in the bone marrow of NOD/SCID recipient mice (FIG. 9b, FIG. 11) (Larochelle, A. et al. Nat Med 2, 1329-1337 (1996); Bhatia, M., et al. Proc Natl Acad Sci USA 94, 5320-5325 (1997)). Intravenous injections of CASIN were applied when human cells were well engrafted in the NOD/SCID recipients.
To analyze the effects of CASIN on the formation of active GTP-bound Cdc42, RhoA, and Rac1, effector pulldown assays were carried out as described previously. Cdc42GAP^−/− MEF, LDBM, CD34^+ hCB cells were treated with CASIN at doses of 5-20 μM in parallel with vehicle control for 2 hrs after overnight starvation, and stimulated with cytokines subsequently. […]

The test system of a further assay is murine HSCs. The assay can be described thus: Example 7 competitive repopulating assay of mobilized HSCs. The settings on record: competitive repopulating experiments, CASIN-mobilized C57Bl/6 donors. Format: in vivo, mice. The source says: Although mobilization of HPC may be of use for short-term repopulation in a transplant setting, HSCs are required for long-term repopulation. To assess mobilization effect of CASIN on murine HSCs, a competitive repopulating assay is used. Basically, donor cells are harvested from peripheral blood of C57Bl/6 mice (CD45.2) after mobilization with CASIN or control medium. BM cells from nonirradiated B6.BoyJ (CD45.1) mice are served as competitor cells. Dilutions of donor blood cells from mobilized C57Bl/6 mice that contain long-term repopulating (LTR) cells compete with marrow cells of recipient B6.BoyJ mice at ratio of 3:1, 2:1, and 1:1 for engraftment in lethally-irradiated recipients. Donor chimerism is assessed using CD45 congenic markers by flow cytometry at 1, 2, 3, and 4 months posttransplantation. […] Donor chimerism again is assessed in the secondary mice based on the CD45 congenic markers.
The mobilization effect of CASIN on HSCs in comparison or combination with G-CSF is assessed under the following four mobilization groups: (1) Control medium mobilization group; (2) CASIN mobilization group; (3) G-CSF mobilization group (G-CSF: twice a day for 2 days); (4) CASIN plus G-CSF (twice a day for 2 days) mobilization group. […] The mobilization effects under different groups are analyzed based on the chimerism of donor-derived cells.

Assay [1] deals with N-RasMA93 cells. The assay can be described thus: adhesion of N-RasMA93 leukemia cells via CH296. The settings on record: in vitro. The class given is cell-based, human. As for the experimental part:
FIG. 5C. Adhesion of leukemia cells via CH296 without or with CASIN pre-treatment at doses of 5 and 10 μM was examined.
(§1) Like normal HSCs, their malignant counterpart, leukemia initiating cells (LICs) reside in their BM niches that provide the structural and physiological conditions supporting their survival and growth. LICs are resistant to traditional chemotherapy by interacting with their BM microenvironment, which are the culprits of leukemia relapses after a period of remission induced by chemotherapy. Detachment of LICs from their niche by CASIN would be a valuable supplementary therapy to the traditional cancer therapies (e.g., chemotherapies). First of all, in vitro effects of CASIN were examined in adhesion, migration, and F-actin polymerization of LICs, each of which is independently important for the retention of LICs in BM niches. Retroviral transduction of an MLL-AF9 fusion cDNA together with N-Ras oncogene into normal human CD34^+cord blood cells led to the establishment of cultures of N-Ras-MA93 cells that can initiate acute myeloid leukemia in NOG mice. […] To address it, a human AML model was set up by transplanting N-RasMA93 cells into NOG mice intravenously.

The target in a further assay is Cdc42 (Mus musculus, UniProt P60766). The assay can be described thus: Cdc42 activity (effector pulldown) in primary murine fibroblasts. Details: endogenous in cells; host or cells: murine low density bone marrow (LDBM) cells. Format: cell-based. The settings on record: Cdc42GAP^−/− primary murine fibroblasts. The source says:
To investigate the Cdc42-dependent cytoskeleton rearrangement, Swiss 3T3 fibroblasts were used since it was abundantly elaborated in Swiss 3T3 fibroblats that bradykinin induces actin filopodia formation through activating Cdc42, whereas PDGF activates Rac1 and induces Rac-mediated membrane lamellipoidia, and LPA responsible for RhoA activation, eliciting RhoA-medicated formation of actin stress fibers and focal adhesion assembly (Ridley, A. J. et al. Cell 70, 401-410 (1992); Ridley, A. J. et al. Cell 70, 389-399 (1992); Kozma, R. et al. Mol Cell Biol 15, 1942-1952 (1995)).
To analyze the effects of CASIN on the formation of active GTP-bound Cdc42, RhoA, and Rac1, effector pulldown assays were carried out as described previously. Cdc42GAP^−/− MEF, LDBM, CD34^+ hCB cells were treated with CASIN at doses of 5-20 μM in parallel with vehicle control for 2 hrs after overnight starvation, and stimulated with cytokines subsequently. And then cells were lysed in a buffer containing 20 mM Tris-HCL (pH 7.6), 100 mM NaCl, 1% Triton X-100, 10 mM MgCl2, 2 mM NaF, and Protease inhibitor cocktail (Roche Diagnostics). Lysates were incubated with GST-P21-binding domain of PAK1 for RAC1-GTP and Cdc42-GTP, and GST-RBD domain of Rhotekin for RhoA-GTP respectively. […]

The test system of assay [2] is N-RasMA93 cells. The assay can be described thus: F-actin reorganization of N-RasMA93 leukemia cells. Format: cell-based, human. The settings on record: in vitro. As for the experimental part:
FIG. 5A. SDF-1α induced F-actin polymerization without or with gradient CASIN pre-treatments was determined by MFI using FACS analysis.
as §1

Chain of Cdc42 (P60766 whole entry): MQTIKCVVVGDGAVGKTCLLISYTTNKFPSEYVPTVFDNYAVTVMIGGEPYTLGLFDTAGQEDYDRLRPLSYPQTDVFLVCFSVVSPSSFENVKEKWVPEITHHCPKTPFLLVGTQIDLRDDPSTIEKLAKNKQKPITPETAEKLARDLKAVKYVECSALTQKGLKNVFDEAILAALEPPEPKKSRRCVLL

Take `OCCNC1CCCc2c1[nH]c1ccc(-c3ccccc3)cc21` (centres unmarked) [CASIN]: the Rac1 activity entry on Rac1 is “without affecting”. Also, the “engraftment of donor derived cells in recipient B6.BoyJ mice” value in the assay with murine HSCs is listed as “significant engraftment of donor derived cells in a dilution-dependent pattern”. The “adhesion capacity of N-RasMA93 cells” value in the assay on N-RasMA93 cells [1] is “not affected significantly”. The Cdc42 activity entry on Cdc42 was “dose-dependently inhibited”. The “F-actin reorganization capacity of N-RasMA93 cells” value with N-RasMA93 cells [2] was “significantly impaired”.
